Test results reported in PMC12446476 (Nature Communications, 2025).

Columns and labels:
N. gonorrhoeae = N. gonorrhoeae murine vaginal infection model, efficacy; assay type: in vivo, mouse
Protocol: The N. gonorrhoeae female mouse vaginal model[45] was performed in accordance with the Guide for Care and Use of Laboratory Animals[75]. Animal rooms were maintained at a temperature range of 20–24 °C and humidity between 30% and 70%, with 12 h light/dark cycles. Ovariectomized BALB/c female mice (5–6 weeks, BioLASCO Taiwan Co., Ltd.) were treated with estradiol (0.23 mg/mouse) two days before infection and on the day of infection. Ovariectomized mice were used to avoid staging mice before treating them with estradiol. Beginning two days prior to infection and maintained until the end of the study, animals were treated twice daily with streptomycin (1.2 mg/mouse) and vancomycin (0.6 mg/mouse) each via intraperitoneal (IP) injection and received trimethoprim sulfate in the drinking water (0.4 mg/mL) to control vaginal microflora. Animals were anesthetised with pentobarbital (80 mg/kg), the vagina was rinsed with 50 mM HEPES (pH 7.4), and then inoculated with N. gonorrhoeae in pre-warmed PBS (0.02 mL/mouse containing ~1 × 10^5 CFU).
Control groups received either a single IP injection of ceftriaxone or 5% dextrose (vehicle) twice daily. Animals were sacrificed via CO2 asphyxiation at either 2 h (baseline), 26 and/or 50 h post-infection. Vaginal lavage was performed twice with 200 µL GC broth containing 0.05% saponin to recover bacteria. Bacterial burden in the lavage fluids was determined by performing 10-fold serial dilutions and plating on chocolate agar plates. Four strains were assessed using the model; ATCC 700825 is naturally streptomycin-resistant, whereas AR Bank0179-15, AR Bank0181-17 and WHO X-07 are derivatives of AR Bank0179, AR Bank0181 and WHO X, respectively, that were engineered for streptomycin resistance for use in the model.

S. aureus ATCC 29213 = assay: S. aureus neutropenic murine thigh infection model; assay type: in vivo, mouse; details: for reduction in thighs: dosed as Debio 1453 P; for Mean Diff. 0h vs. treatment, log10 CFU: S. aureus ATCC 29213, daily dose
Protocol: The S. aureus neutropenic murine thigh infection model was performed in accordance with the Guide for Care and Use of Laboratory Animals[75]. Animal rooms were maintained at a temperature range of 20–24 °C and humidity between 30% and 70%, with 12 h light/dark cycles. Female ICR mice (BioLASCO Taiwan Co., Ltd.) were rendered neutropenic via IP injection of cyclophosphamide four days before infection (150 mg/kg) and again one day before infection (100 mg/kg). Animals were anaesthetised with isoflurane (3–5%), then inoculated intramuscularly with S. aureus ATCC 29213 (~1 × 10^5 CFU/mouse). […] Animals were sacrificed via CO2 asphyxiation at either 2 h (baseline), 26 and/or 50 h post-infection. Thigh tissues were harvested and homogenised in 3 mL sterile PBS (pH 7.4). Bacterial burdens were determined by performing 10-fold serial dilutions and plating on nutrient agar plates.

SMILES: Cc1c(CN(C)C(=O)/C=C/c2cnc3c(c2)N[C@H](C)[C@H](O)C(=O)N3)oc2ccccc12 [Debio 1453]
- Mean Diff. 0h vs. treatment, log10 CFU (N. gonorrhoeae; AR Bank0179-15, 20 µg/mL Debio 1453, 24h): -1.082
- Mean Diff. 0h vs. treatment, log10 CFU (N. gonorrhoeae; AR Bank0179-15, 20 µg/mL Debio 1453, 48h): -1.16
- Mean Diff. 0h vs. treatment, log10 CFU (N. gonorrhoeae; AR Bank0179-15, 40 µg/mL Debio 1453, 24h): -0.242
- Mean Diff. 0h vs. treatment, log10 CFU (N. gonorrhoeae; AR Bank0179-15, 40 µg/mL Debio 1453, 48h): 1.58
- Mean Diff. 0h vs. treatment, log10 CFU (N. gonorrhoeae; AR Bank0179-15, 60 µg/mL Debio 1453, 24h): 1.644
- Mean Diff. 0h vs. treatment, log10 CFU (N. gonorrhoeae; AR Bank0179-15, 60 µg/mL Debio 1453, 48h): 2.864
- Mean Diff. 0h vs. treatment, log10 CFU (N. gonorrhoeae; AR Bank0179-15, 80 µg/mL Debio 1453, 24h): 1.958
- Mean Diff. 0h vs. treatment, log10 CFU (N. gonorrhoeae; AR Bank0179-15, 80 µg/mL Debio 1453, 48h): 2.964
- Mean Diff. 0h vs. treatment, log10 CFU (N. gonorrhoeae; AR Bank0179-15, 24h): 3.186
- Mean Diff. 0h vs. treatment, log10 CFU (N. gonorrhoeae; AR Bank0179-15, 48h): 3.186
- Mean Diff. 0h vs. treatment, log10 CFU (N. gonorrhoeae; AR Bank0181-17, 40 µg/mL Debio 1453, 24h): -1.694
- Mean Diff. 0h vs. treatment, log10 CFU (N. gonorrhoeae; AR Bank0181-17, 40 µg/mL Debio 1453, 48h): -0.796
- Mean Diff. 0h vs. treatment, log10 CFU (N. gonorrhoeae; AR Bank0181-17, 60 µg/mL Debio 1453, 24h): -1.094
- Mean Diff. 0h vs. treatment, log10 CFU (N. gonorrhoeae; AR Bank0181-17, 60 µg/mL Debio 1453, 48h): -0.998
- Mean Diff. 0h vs. treatment, log10 CFU (N. gonorrhoeae; AR Bank0181-17, 80 µg/mL Debio 1453, 24h): -0.986
- Mean Diff. 0h vs. treatment, log10 CFU (N. gonorrhoeae; AR Bank0181-17, 80 µg/mL Debio 1453, 48h): -0.852
- Mean Diff. 0h vs. treatment, log10 CFU (N. gonorrhoeae; AR Bank0181-17, 320 µg/mL Debio 1453, 24h): 3.42
- Mean Diff. 0h vs. treatment, log10 CFU (N. gonorrhoeae; AR Bank0181-17, 320 µg/mL Debio 1453, 48h): 3.56
- Mean Diff. 0h vs. treatment, log10 CFU (N. gonorrhoeae; AR Bank0181-17, 24h): 0.842
- Mean Diff. 0h vs. treatment, log10 CFU (N. gonorrhoeae; AR Bank0181-17, 48h): 1.134
- Mean Diff. 0h vs. treatment, log10 CFU (N. gonorrhoeae; ATCC 700825, 20 µg/mL Debio 1453, 24h): -0.874
- Mean Diff. 0h vs. treatment, log10 CFU (N. gonorrhoeae; ATCC 700825, 20 µg/mL Debio 1453, 48h): -1.386
- Mean Diff. 0h vs. treatment, log10 CFU (N. gonorrhoeae; ATCC 700825, 40 µg/mL Debio 1453, 24h): -0.322
- Mean Diff. 0h vs. treatment, log10 CFU (N. gonorrhoeae; ATCC 700825, 40 µg/mL Debio 1453, 48h): -0.946
- Mean Diff. 0h vs. treatment, log10 CFU (N. gonorrhoeae; ATCC 700825, 60 µg/mL Debio 1453, 24h): 1.296
- Mean Diff. 0h vs. treatment, log10 CFU (N. gonorrhoeae; ATCC 700825, 60 µg/mL Debio 1453, 48h): 2.468
- Mean Diff. 0h vs. treatment, log10 CFU (N. gonorrhoeae; ATCC 700825, 80 µg/mL Debio 1453, 24h): 2.796
- Mean Diff. 0h vs. treatment, log10 CFU (N. gonorrhoeae; ATCC 700825, 80 µg/mL Debio 1453, 48h): 3.082
- Mean Diff. 0h vs. treatment, log10 CFU (N. gonorrhoeae; ATCC 700825, 24h): 2.942
- Mean Diff. 0h vs. treatment, log10 CFU (N. gonorrhoeae; ATCC 700825, 48h): 3.082
- Mean Diff. 0h vs. treatment, log10 CFU (N. gonorrhoeae; WHO X-07, 40 µg/mL Debio 1453, 24h): -1.944
- Mean Diff. 0h vs. treatment, log10 CFU (N. gonorrhoeae; WHO X-07, 40 µg/mL Debio 1453, 48h): -2.102
- Mean Diff. 0h vs. treatment, log10 CFU (N. gonorrhoeae; WHO X-07, 60 µg/mL Debio 1453, 24h): -1.81
- Mean Diff. 0h vs. treatment, log10 CFU (N. gonorrhoeae; WHO X-07, 60 µg/mL Debio 1453, 48h): -1.666
- Mean Diff. 0h vs. treatment, log10 CFU (N. gonorrhoeae; WHO X-07, 80 µg/mL Debio 1453, 24h): -1.492
- Mean Diff. 0h vs. treatment, log10 CFU (N. gonorrhoeae; WHO X-07, 80 µg/mL Debio 1453, 48h): -1.246
- Mean Diff. 0h vs. treatment, log10 CFU (N. gonorrhoeae; WHO X-07, 320 µg/mL Debio 1453, 24h): 3.01
- Mean Diff. 0h vs. treatment, log10 CFU (N. gonorrhoeae; WHO X-07, 320 µg/mL Debio 1453, 48h): 3.322
- Mean Diff. 0h vs. treatment, log10 CFU (N. gonorrhoeae; WHO X-07, 24h): 2.532
- Mean Diff. 0h vs. treatment, log10 CFU (N. gonorrhoeae; WHO X-07, 48h): 3.114
- reduction compared to the start of treatment (0 h) (N. gonorrhoeae; each of four strains, dosed as Debio 1453 P, limit of detection by 48 h for at least one dose level): ~ 3 log10CFU/mL
- reduction in thighs (S. aureus ATCC 29213; 24 h): > 1 log10CFU/mL
- reduction in thighs (S. aureus ATCC 29213; 48 h): > 2 log10CFU
- Mean Diff. 0h vs. treatment, log10 CFU (S. aureus ATCC 29213; 20 µg/mL Debio 1453, 24h): -1.552
- Mean Diff. 0h vs. treatment, log10 CFU (S. aureus ATCC 29213; 20 µg/mL Debio 1453, 48h): -2.396
- Mean Diff. 0h vs. treatment, log10 CFU (S. aureus ATCC 29213; 40 µg/mL Debio 1453, 24h): -0.054
- Mean Diff. 0h vs. treatment, log10 CFU (S. aureus ATCC 29213; 40 µg/mL Debio 1453, 48h): -1.464
- Mean Diff. 0h vs. treatment, log10 CFU (S. aureus ATCC 29213; 60 µg/mL Debio 1453, 24h): 1.22
- Mean Diff. 0h vs. treatment, log10 CFU (S. aureus ATCC 29213; 60 µg/mL Debio 1453, 48h): 1.476
- Mean Diff. 0h vs. treatment, log10 CFU (S. aureus ATCC 29213; 80 µg/mL Debio 1453, 24h): 1.132
- Mean Diff. 0h vs. treatment, log10 CFU (S. aureus ATCC 29213; 80 µg/mL Debio 1453, 48h): 2.658
- Mean Diff. 0h vs. treatment, log10 CFU (S. aureus ATCC 29213; 160 µg/mL Debio 1453, 24h): 1.558
- Mean Diff. 0h vs. treatment, log10 CFU (S. aureus ATCC 29213; 160 µg/mL Debio 1453, 48h): 2.682
